In patent US20250051313A1, “PHTHALAZINE DERIVATIVES AS PYRUVATE KINASE MODULATORS” (Sitryx Therapeutics Limited, priority 2021, published 2025):
Read-outs that look alike come from different tables or passages of the source.

Experiments:
recombinant human PKM2 = recombinant human PKM2 (Homo sapiens (Human), UniProt P14618); test: Human PKM2 activation assay (Kinase-Glo Plus luminescence); type: biochemical; details: for Emax: read-out: hPKM2 Emax
Experimental: (§1) Measuring in vitro activation of recombinant human PKM2 Compound activation of recombinant human PKM2 pyruvate kinase activity was determined by biochemical assay. N-terminal His-tagged hPKM2 was sourced from R&D Systems and its substrates phosphoenolpyruvate (PEP) and ADP from Sigma-Aldrich and 2Bscientific Ltd, respectively. The Kinase-Glo® Plus luminescence assay was from Promega. All other reagents were from Sigma-Aldrich. Test Compounds were prepared as 10 mM DMSO stocks and dilution series prepared in DMSO for direct dilution into Assay Buffer comprising 50 mM imidazole, 50 mM KCl, 7 mM MgCl2, 0.01% Tween20, 0.05% BSA (pH 7.2).
Human PKM2 was diluted into Assay Buffer comprising 50 mM imidazole, 50 mM KCl, 7 mM MgCl2, 0.01% Tween20, 0.05% BSA (pH 7.2) to a final concentration of 5 pM. Enzyme-Assay Buffer mix was dispensed into a 384-well shallow-well white-walled plate (PerkinElmer) and Test Compounds added by acoustic dispense (Echo®, Labcyte Inc.).
(§2) After 60 minutes' incubation on an orbital shaker (300 rpm, 26° C.), enzyme activity was quantified by the luminescent detection of generated ATP. Kinase-Glo® Plus reagent was added to each well and the plates incubated for a further 15 minutes on an orbital shaker in the dark (300 rpm, 26° C.) before luminescence measurement on a plate reader (PHERAstar® FSX, BMG Labtech).
(§3) Percentage activation was calculated by normalising […] signals to plate LOW (DMSO vehicle) and HIGH (5 μM TEPP-46) controls. EC50 and Emax values were determined from 4-parameter logistic fits of compound concentration-response curves.

recombinant human PKLR = recombinant human PKLR (Homo sapiens (Human), UniProt P30613); test: Human PKLR activation assay (Kinase-Glo Plus luminescence); type: biochemical
Sequence of recombinant human PKLR (P30613 whole entry): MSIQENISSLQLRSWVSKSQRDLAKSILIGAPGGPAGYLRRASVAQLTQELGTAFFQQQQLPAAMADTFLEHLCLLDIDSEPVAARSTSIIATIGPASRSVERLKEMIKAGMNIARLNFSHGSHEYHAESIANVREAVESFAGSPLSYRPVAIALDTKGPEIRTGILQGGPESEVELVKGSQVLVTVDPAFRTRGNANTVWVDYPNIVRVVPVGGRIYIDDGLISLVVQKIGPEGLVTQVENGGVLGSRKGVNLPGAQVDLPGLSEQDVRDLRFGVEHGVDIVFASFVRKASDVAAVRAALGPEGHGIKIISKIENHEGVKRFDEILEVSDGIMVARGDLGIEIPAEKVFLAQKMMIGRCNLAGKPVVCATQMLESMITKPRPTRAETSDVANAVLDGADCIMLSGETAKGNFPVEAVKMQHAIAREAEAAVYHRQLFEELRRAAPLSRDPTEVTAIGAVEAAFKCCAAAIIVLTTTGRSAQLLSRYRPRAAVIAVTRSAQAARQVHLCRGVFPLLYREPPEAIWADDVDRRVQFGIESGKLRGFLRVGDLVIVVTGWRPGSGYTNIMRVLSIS
Experimental: as §1, with “PKLR” for “PKM2”, “enzyme” for “hPKM2”
Human PKLR was diluted into Assay Buffer to a final concentration of 5 pM. […]
as §2, §3

[1] = target: pyruvate kinase (PK) activity in human CD4+ T cell lysates (Homo sapiens, UniProt P14618); test: CD4+ T cell pyruvate kinase assay; type: cell-based; details: human CD4+ T cells incubated with compound 20 minutes, then lysed; ΔAbsorbance OD570
Sequence of pyruvate kinase (PK) activity in human CD4+ T cell lysates (P14618 2-531 limits assumed): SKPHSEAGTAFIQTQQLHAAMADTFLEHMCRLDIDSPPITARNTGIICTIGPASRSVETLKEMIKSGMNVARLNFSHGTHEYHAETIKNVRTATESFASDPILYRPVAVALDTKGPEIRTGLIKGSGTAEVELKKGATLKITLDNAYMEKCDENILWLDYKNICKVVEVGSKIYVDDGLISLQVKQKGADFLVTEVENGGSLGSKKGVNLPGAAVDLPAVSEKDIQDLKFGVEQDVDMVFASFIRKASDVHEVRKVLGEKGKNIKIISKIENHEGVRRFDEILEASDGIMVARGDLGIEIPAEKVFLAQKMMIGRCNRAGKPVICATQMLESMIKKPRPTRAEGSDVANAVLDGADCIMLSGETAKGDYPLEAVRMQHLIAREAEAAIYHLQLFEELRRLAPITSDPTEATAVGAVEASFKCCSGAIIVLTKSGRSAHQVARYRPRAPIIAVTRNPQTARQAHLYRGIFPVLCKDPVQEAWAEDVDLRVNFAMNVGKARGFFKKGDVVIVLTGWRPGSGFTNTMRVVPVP
Experimental: Compound activation of pyruvate kinase in human CD4+ T cell lysates was determined by biochemical assay. Primary CD4+ T cells were used rather than cancer cell lines to improve the disease relevance of the assay. The PK assay was sourced from Abcam. All other reagents were sourced from ThermoFisher. Test compounds were prepared as 10 mM DMSO stocks and dilution series prepared in DMSO for addition to intact CD4+ T cells cultured in RPMI media containing 10% FBS.
Human CD4+ T cells were incubated with compound for 20 minutes and then washed twice in 1×PBS before resuspension in Abcam PK lysis buffer to prepare cell lysates. 10 μl PK assay Reaction Mix was added per well, including OXIRED™ PROBE. The plates were read using a BMG Labtech Pherastar plate reader at OD570 nm in kinetic mode for […] (25 cycles of 2 minutes) at 25° C., protecting from light.
Plates were blank-subtracted and ΔAbsorbance calculated by subtracting the first plate read within the linear range from the plate read at the timepoint of interest. PK activity is expressed as ΔAbsorbance and plotted against log [Compound].

Sequence of recombinant human PKM2 (P14618 whole entry): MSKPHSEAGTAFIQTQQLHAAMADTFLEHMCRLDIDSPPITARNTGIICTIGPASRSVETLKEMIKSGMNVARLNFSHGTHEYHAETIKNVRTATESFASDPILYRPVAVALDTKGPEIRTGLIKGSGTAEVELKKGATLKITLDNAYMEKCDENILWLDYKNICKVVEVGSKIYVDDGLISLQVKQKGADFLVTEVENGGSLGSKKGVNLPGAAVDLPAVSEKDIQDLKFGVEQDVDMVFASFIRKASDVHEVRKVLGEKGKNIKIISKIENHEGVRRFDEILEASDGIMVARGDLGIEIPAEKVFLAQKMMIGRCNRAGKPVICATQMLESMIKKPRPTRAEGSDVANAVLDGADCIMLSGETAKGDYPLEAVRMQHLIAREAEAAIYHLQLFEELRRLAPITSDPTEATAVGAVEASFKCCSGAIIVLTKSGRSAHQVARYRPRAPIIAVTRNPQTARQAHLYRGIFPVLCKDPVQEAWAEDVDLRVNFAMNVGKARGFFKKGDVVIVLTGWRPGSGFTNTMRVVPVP

Emax (recombinant human PKM2; data from repeated experiments, normalised to DMSO and 5 μM TEPP-46): 107%
EC50 (recombinant human PKM2; data from repeated experiments, read-out: hPKM2 EC50): 107 nM
Emax (recombinant human PKM2; percentage activation normalised to DMSO (LOW) and 5 μM TEPP-46 (HIGH)): 114%
EC50 (recombinant human PKM2; recombinant His-tagged hPKM2, activation, 4-parameter logistic fit): 64.5 nM
Emax (recombinant human PKLR; percentage activation normalised to DMSO (LOW) and 5 μM TEPP-46 (HIGH), read-out: hPKLR Emax): 134%
EC50 (recombinant human PKLR; recombinant His-tagged hPKLR, activation, 4-parameter logistic fit): 10.3 nM
EC50 [1]: 82.5 nM
Structure (SMILES): O=c1c2ccc(S(=O)(=O)c3cn[nH]c3)cc2cnn1Cc1ccn(C2CC2)n1 [Example 1, 6-((1H-pyrazol-4-yl)sulfonyl)-2-((1-cyclopropyl-1H-pyrazol-3-yl)methyl) phthalazin-1(2H)-one]
